In brackets after ≈: the same amount, converted by molar mass.
Tests used:
Format in all cases: cell-based
[1] = test system: A375 human melanoma cells; assay: MTT cell proliferation assay in A375 cells; details: A-375, 72 h, 3 days, read-out: 50% of inhibitory concentration, IC50 in A375 cells
Experimental: MTT [3-(4,5-dimethylthiazol-2-yl)-2,5-diphenyltetrazolium bromide] incorporation based cell proliferation assay was performed using standard procedure with some modifications (38). The cytotoxic efficacy of the test compounds were evaluated in human malignant melanoma A2058 cells by MTT cell proliferation assay kit (Roche Applied Sciences, Germany). The assay was carried out according to the instruction provided by the vendor. Briefly, equal numbers of cells was plated in 96-well flat-bottomed plates in 100 μl of medium and were exposed to either DTIC or its derivative compounds at various concentrations up to 150 μg/ml for a period of three days. Vehicle control culture wells received only a maximum of 0.5% DMSO. […] After complete solubilization of the formazan crystals the absorbance was read at 540 nm in a microplate reader (BioRad, USA). […]
The comparative anti-tumor growth potential of DTIC and Compound 6 was further tested in B16F0 mouse melanoma cells and A375 human melanoma cells by using MTT based cell proliferation assay following the methodology described earlier (Example 19). […] After adding the MTT reagent, the cells were solubilized and the intracellular formazan formation was calorimetrically read at 540 nm in a microplate reader (BioRad, USA). […]

B16F0 cells = assay: B16F0 mouse melanoma cell invasion assay (Matrigel); details: 100 μg/ml, 24 h, compared to vehicle or DTIC
Experimental: The inhibitory effects of DTIC and […] on In vitro invasive ability of B16F0 were tested in cell invasion assay performed with by using Matrigel (BME Cultrex®, R&D Systems, USA) coated cell culture inserts (Becton Dickinson, USA) with 8 μm-pore membrane. Equal number (fifty thousands) of B16F0 cells were applied in each insert well and allowed to attach for 2 h at 37° C. and in presence of 5% CO2. Thereafter, the cellular invasion through the matrigel layer was performed in presence or absence of test compounds. Either 100 μg/ml of DTIC or Compound 6 was applied in the lower chamber of the invasion assembly. 0.1% DMSO was applied in the vehicle control culture chambers. After 24 h treatment, the matrigel layer containing cells was removed with cotton plug and the invaded cells on the other side of the membrane were fixed with methanol for 5 min and then stained with Giemsa. The stained membrane was mounted on a glass slide and number invaded cells were counted in 20 random fields (20× objective) under a light microscope (Nikon Eclipse TS 100).

[2] = test system: normal human skin epithelial HS.531.sk cells; assay: LDH leakage assay on normal skin cells (tumor selectivity)
Experimental: From the data obtained from the MTT assay (Table J), compound 1, compound 6 and compound 13 have been selected and their cytotoxicity potential has been further validated in LDH leakage assay. […] Cytotoxicity potential of DTIC and its derivative compounds were evaluated by measuring the leaked lactate dehydrogenase (LDH) into the culture supernatant (LDH Cytotoxicity Detection Roche Applied Sciences, Germany). The leaked LDH is directly proportional to the cell damage done by the cytotoxic compounds. In brief, cells were treated with test compounds at various concentrations and incubated for 48 h. Vehicle control culture wells received only a maximum of 0.5% DMSO. The cell free culture supernatants were mixed with catalyst and dye solution and allowed to incubate for 15 min at room temperature. Finally, the reaction was stopped and the optical density was measured at 492 nm in a microplate reader (BioRad, USA). The results (mean OD±SD) obtained from quadruplicate wells were used in calculation to determine the cytotoxicity potential (50% of inhibitory concentration, IC50) of the test compounds. A plot of loss of cell viability as indicated by the leakage of LDH versus drug concentration is depicted in FIG. 1.
Next, to check whether the DTIC derivative compounds can selectively kill the melanoma cells without or minimally affecting the normal cells, we assessed the effect of the test compounds on normal human skin epithelial HS.531.sk cells. […] Whereas, 120 μg/ml of DTIC, compound 1, […] caused 5.8%, 4.2%, 2.4%, and 2.4% reduction in normal cell viability, respectively.

Row | SMILES | IC50 [1] | tumor cell invasion (B16F0 cells) | reduction in normal cell viability ([2]; 120 μg/ml) | effect on normal skin cell growth ([2]; up to 100 μg/ml)
1 | CN(C)/N=N/c1ccsc1C(=O)O [Compound 6, 3-[(dimethylamino)diazenyl]thiophene-2-carboxylic acid] | 46.5 µg/mL (≈ 233 µM) | significantly reduced malignant tumor cell invasion |  | 
2 | CN(C)/N=N/c1[nH]cnc1C(N)=O [DTIC, 5-(3,3-dimethyl-1-trizeno)-imidazole-4-carboxamide, reference compound] |  |  | 5.8% | do not affect the normal cell skin cell growth

From patent US8258119B2, “Anti-cancer drugs and uses relating thereto for metastatic malignant melanoma and other cancers” (Kasina Laila Innova Pharmaceuticals, priority 2008, dated 2012)
